Data published in patent US11013745B2, “Triazolopyrimidine, triazolopyridine compounds, and the composition thereof for treating PRC2-mediated diseases” (SHANGHAI INSTITUTE OF MATERIA MEDICA, CHINESE ACADEMY OF …, priority 2017, dated 2021).

How the values were obtained:
PRC2 enzyme = PRC2 enzyme (Homo sapiens (Human), UniProt O75530); experiment: PRC2 enzyme activity, TR-FRET method; assay type: biochemical
Method: The TR-FRET method was used to measure the PRC2 enzyme activity. First, the enzyme was mixed with compounds at different concentrations and incubated for 30 min at room temperature. The biotin-labeled histone H3 peptide substrate and the cofactor S-adenosylmethionine (SAM) were added to initiate the enzymatic reaction. After reaction was performed at room temperature for 4 hour, Acceptor and Donor were added and incubated for half an hour. The multifunctional microplate reader EnVision (Perkin Elmer Inc.) was used to detect the fluorescence signal. Data were analyzed using GraphPad Prism 5.0 software, and IC50 values were obtained.

Pfeiffer cells = experiment: Pfeiffer cell growth inhibition in a long term (11 days), CellTiter-Glo; assay type: cell-based, Human; conditions: Homo sapiens, 264 h, 11 days, read-out: Experiment on Pfeiffer cell growth inhibition in a long term (11 days IC50)
Method: Pfeiffer cells in exponential growth phase were seeded in a 24-well plate with a cell density of 1*10E5 cells/mL. Cells were treated on the same day with the compounds at different concentrations. At day 4 and day 7 of compound treatment, fresh media and compounds were changed. After treated with the compounds for 11 days, cell viability was measured using CellTiter-Glo reagent (Promega Corporation). The data was analyzed using GraphPad Prism 5.0 software and GI50 values were obtained.

[1] = Liver microsomal stability (human); assay type: in vitro ADME; conditions: for half-life / bioavailability: human, liver microsomes, pH 7.4, human liver microsomes; for half-life: read-out: Half life T-half; for bioavailability: read-out: Metabolic bioavailability MF %
Method: (§1) 1. JANUS and temperature control device was turned on. After being initialized, the pipes were flushed until there was no air bubble in the pipes.
(§2) 2. Preparation of buffers used for the experiment
(§3) Preparation of Tris pH 7.4 buffer (0.1 M): 12.12 g of Tris was dissolved in 1000 mL of H2O, the resulting solution was adjusted to pH 7.4 with 2N HCl, aliquoted at 50 mL per tube, and stored at −20° C.
(§4) Preparation of H2O/0.1% BSA buffer: 200 μL of 25% BSA was added to 50 mL of H2O.
(§5) Preparation of VIVID stock solution: 1 mg of VIVID was dissolved in 1 mL of acetonitrile, aliquoted at 50 μL per tube, and stored at −20° C.
(§6) Preparation of MgCl2 solution (100 mM): 1.016 g of MgCl2 was dissolved in 50 mL Tris pH 7.4 buffer, and aliquoted at 1 mL per tube, and stored at −20° C.
(§7) Preparation of NADPH solution (10 mM): 355 mg of NADPH was dissolved in 42.6 mL of Tris pH 7.4 buffer, aliquoted at 1.8 mL per tube, and stored at −20° C.
(§8) Preparation of Blank control: 7.937 mL of Tris, 163 μL of RLM, 450 μL of MgCl2 solution, 450 μL of NADPH solution and 9 mL of methanol were mixed uniformly, aliquoted at 1 mL per tube, and stored at −20° C.
(§9) 3. Preparation of Compound Working Solution
(§10) Dilution step 1:10 μL of compound stock solution was added to 90 μL of DMSO=1 mM stock solution.
(§11) Dilution step 2: 2 μL of 1 mM stock solution was added to 1 mL of H2O/0.1%6 BSA buffer=[…] working solution.
(§12) Dilution step 3: 245 μL of the working solution was added to a 96-well compound plate and added with 5 μL of VIVID stock solution.
(§13) The 96-well compound plate was shaken on a shaker for 5 min.
(§14) 4. The STM in the JANUS in the computer was open to run the EXCEL file, and the JANUS program was operated and run by following the instructions in the EXCEL file.
(§15) 5. After the JANUS program was finished, acetonitrile/water 50:50 (V/V) was added to column 20 of the 384-well black plate, and blank control was added to column 21 of the 384-well black plate.
(§16) 6. the plate (420 nm-465 nm) was read on a microplate reader to determine the VIVID fluorescence intensity.
(§17) 7. After the plate was sealed, shaken and centrifuged, the sample plate was subjected to the LC/MS instrument for sample analysis.
(§18) A profile of the logarithmic value of the remaining rate of the drug in the incubation system versus the incubation time was plotted, and the slope k was obtained by linear regression. The intrinsic clearance rate in vivo (Clint, mL/min/g) value, the clearance rate in vivo (Cl, mL)/min), liver clearance (Clhep, mL/min) and metabolic bioavailability (% MF) were predicted according to the following equations: […]

[2] = Liver microsomal stability (rat); assay type: in vitro ADME; conditions: for Clearance rate in vivo Clint In Vivo Extpl / Intrinsic clearance rate in vivo Clint In Vitro / Liver clearance rate Clint Hep In Vivo Extpl / Metabolic bioavailability MF % / Half life T-half: rat liver microsomes; for half-life: rat, liver microsomes, pH 7.4, rat liver microsomes, read-out: Half life T-half
Method: as §1, §2, §3, §4, §5, §6, §7, §8, §9, §10, §11, §12, §13, §14, §15, §16, §17, §18

[3] = Liver microsomal stability (mouse); assay type: in vitro ADME; conditions: for Clearance rate in vivo Clint In Vivo Extpl / Intrinsic clearance rate in vivo Clint In Vitro / Liver clearance rate Clint Hep In Vivo Extpl / Metabolic bioavailability MF % / Half life T-half: mouse liver microsomes; for half-life: mouse, liver microsomes, pH 7.4, mouse liver microsomes, read-out: Half life T-half

Chain of PRC2 enzyme (O75530 whole entry): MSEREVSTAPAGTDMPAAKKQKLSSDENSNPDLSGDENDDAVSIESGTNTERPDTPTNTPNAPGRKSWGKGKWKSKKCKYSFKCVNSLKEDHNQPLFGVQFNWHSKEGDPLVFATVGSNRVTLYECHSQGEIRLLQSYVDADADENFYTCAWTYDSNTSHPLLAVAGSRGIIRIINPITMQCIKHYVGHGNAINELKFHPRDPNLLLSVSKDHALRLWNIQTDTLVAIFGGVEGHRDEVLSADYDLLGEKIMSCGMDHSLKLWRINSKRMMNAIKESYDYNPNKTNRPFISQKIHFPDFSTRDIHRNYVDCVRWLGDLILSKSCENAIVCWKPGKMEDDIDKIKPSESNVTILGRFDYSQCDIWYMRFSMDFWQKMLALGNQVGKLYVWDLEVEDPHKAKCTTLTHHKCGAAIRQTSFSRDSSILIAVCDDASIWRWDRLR
Chain of PRC2 enzyme (Q15910 whole entry partner): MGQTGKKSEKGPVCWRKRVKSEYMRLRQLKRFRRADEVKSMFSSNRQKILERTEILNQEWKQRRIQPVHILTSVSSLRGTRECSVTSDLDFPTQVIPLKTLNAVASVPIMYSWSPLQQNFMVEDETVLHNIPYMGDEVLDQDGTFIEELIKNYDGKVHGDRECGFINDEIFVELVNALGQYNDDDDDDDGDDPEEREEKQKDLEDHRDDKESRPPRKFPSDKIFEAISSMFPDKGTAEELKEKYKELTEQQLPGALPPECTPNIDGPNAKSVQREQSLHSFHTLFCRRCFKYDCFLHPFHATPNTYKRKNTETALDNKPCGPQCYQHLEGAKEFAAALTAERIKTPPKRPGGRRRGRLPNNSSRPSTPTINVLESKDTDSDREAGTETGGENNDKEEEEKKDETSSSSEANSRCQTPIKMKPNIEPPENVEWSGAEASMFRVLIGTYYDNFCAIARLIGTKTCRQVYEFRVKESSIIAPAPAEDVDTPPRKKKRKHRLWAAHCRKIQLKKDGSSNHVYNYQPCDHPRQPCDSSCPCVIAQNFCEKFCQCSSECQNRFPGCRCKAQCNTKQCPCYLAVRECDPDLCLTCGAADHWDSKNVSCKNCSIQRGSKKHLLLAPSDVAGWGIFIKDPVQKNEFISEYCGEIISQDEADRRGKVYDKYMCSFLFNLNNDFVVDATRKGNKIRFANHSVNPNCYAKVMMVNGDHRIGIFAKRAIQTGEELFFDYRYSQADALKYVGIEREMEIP
Chain of PRC2 enzyme (Q15022 whole entry partner): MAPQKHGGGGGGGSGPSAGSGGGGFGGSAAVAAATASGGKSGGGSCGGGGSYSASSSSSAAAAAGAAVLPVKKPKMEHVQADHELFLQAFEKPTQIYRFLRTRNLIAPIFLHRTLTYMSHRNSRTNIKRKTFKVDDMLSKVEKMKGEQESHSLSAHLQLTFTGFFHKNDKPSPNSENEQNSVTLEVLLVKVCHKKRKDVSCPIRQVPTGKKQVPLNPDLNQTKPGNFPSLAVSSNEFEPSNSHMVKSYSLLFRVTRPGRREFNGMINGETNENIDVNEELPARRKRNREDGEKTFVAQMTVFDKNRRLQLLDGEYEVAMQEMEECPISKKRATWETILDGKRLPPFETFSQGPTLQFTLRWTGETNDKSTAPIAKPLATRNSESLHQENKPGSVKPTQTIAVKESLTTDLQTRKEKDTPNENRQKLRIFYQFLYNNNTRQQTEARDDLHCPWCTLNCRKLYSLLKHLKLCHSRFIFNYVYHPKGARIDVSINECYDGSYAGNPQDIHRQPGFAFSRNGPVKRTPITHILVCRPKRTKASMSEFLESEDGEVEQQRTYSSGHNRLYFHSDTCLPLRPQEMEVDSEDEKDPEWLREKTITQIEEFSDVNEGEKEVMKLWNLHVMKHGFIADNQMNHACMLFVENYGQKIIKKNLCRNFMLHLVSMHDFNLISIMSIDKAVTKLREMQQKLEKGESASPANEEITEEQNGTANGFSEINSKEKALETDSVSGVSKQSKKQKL

Row | IC50 (PRC2 enzyme) | IC50 (Pfeiffer cells) | Clearance rate in vivo Clint In Vivo Extpl ([1]; human liver microsomes) | Intrinsic clearance rate in vivo Clint In Vitro ([1]; human liver microsomes) | Liver clearance rate Clint Hep In Vivo Extpl ([1]; human liver microsomes) | Clearance rate in vivo Clint In Vivo Extpl [2] | Intrinsic clearance rate in vivo Clint In Vitro [2] | Liver clearance rate Clint Hep In Vivo Extpl [2] | Metabolic bioavailability MF % [2] | Clearance rate in vivo Clint In Vivo Extpl [3] | Intrinsic clearance rate in vivo Clint In Vitro [3] | Liver clearance rate Clint Hep In Vivo Extpl [3] | Metabolic bioavailability MF % [3] | Structure (SMILES) | other results
1 | 8.5 nM | 3.3 nM | 1464 mL/min | 19.1 mL/min/gprot | 741 mL/min | 44.8 mL/min | 99.6 mL/min/gprot | 13.8 mL/min | 30.9% | 10.9 mL/min | 161 mL/min/gprot | 2.35 mL/min | 21.6% | O=C(C1CCOCC1)N1CC=C(c2cnc(NCc3c(F)ccc4c3CCO4)n3cnnc23)CC1 [E-Y43] | half-life [1]: 1.83 h; bioavailability [1]: 50.6%; half-life [2]: 0.352 h; half-life [3]: 0.217 h
2 | 85.8 nM | 2.3 nM | – | – | – | – | – | – | – | – | – | – | – | O=C(OCc1ccccc1)N1CC=C(c2cnc(NCc3c(F)ccc4c3CCO4)n3cnnc23)CC1 [E-Y44] | –
3 | 3.4 nM | 1.8 nM | – | – | – | – | – | – | – | – | – | – | – | C=CC(=O)N1CC=C(c2cnc(NCc3c(F)ccc4c3CCO4)n3cnnc23)CC1 [E-Y45] | –
4 | 5.4 nM | 15.9 nM | – | – | – | – | – | – | – | – | – | – | – | CCNC(=O)N1CCC(c2cnc(NCc3c(F)ccc4c3CCO4)n3cnnc23)CC1 [E-Y48] | –
5 | 6.6 nM | 10 nM | – | – | – | – | – | – | – | – | – | – | – | CC(C)(C)NC(=O)N1CCC(c2cnc(NCc3c(F)ccc4c3CCO4)n3cnnc23)CC1 [E-Y49] | –
6 | 5.3 nM | 3.8 nM | 174 mL/min | 2.28 mL/min/gprot | 156 mL/min | 10.9 mL/min | 24.2 mL/min/gprot | 7.05 mL/min | 64.8% | 0.921 mL/min | 13.6 mL/min/gprot | 0.705 mL/min | 76.5% | CC(=O)N1CCC(c2cnc(NCc3c(F)ccc4c3CCO4)n3cnnc23)CC1 [E-Y50] | half-life [1]: 15.4 h; bioavailability [1]: 89.6%; half-life [2]: 1.45 h; half-life [3]: 2.57 h
7 | 5 nM | – | 336 mL/min | 4.39 mL/min/gprot | 274 mL/min | 4.26 mL/min | 9.47 mL/min/gprot | 3.51 mL/min | 82.4% | 1.21 mL/min | 17.9 mL/min/gprot | 0.862 mL/min | 71.3% | CN(C)CC(=O)N1CC=C(c2cnc(NCc3c(F)ccc4c3CCO4)n3cnnc23)CC1 [E-Y54-H] | Half life T-half ([1]; human liver microsomes): 7.98 h; Metabolic bioavailability MF % ([1]; human liver microsomes): 81.7%; Half life T-half [2]: 3.7 h; Half life T-half [3]: 1.95 h
8 | 4.1 nM | – | 188 mL/min | 2.46 mL/min/gprot | 167 mL/min | 10.0 mL/min | 22.3 mL/min/gprot | 6.67 mL/min | 66.6% | 3.86 mL/min | 57.1 mL/min/gprot | 1.69 mL/min | 43.7% | CN(C)CC(=O)N1CC=C(c2cnc(NCc3c(F)ccc4c3CCO4)n3cnnc23)CC1 [E-Y54] | half-life [1]: 14.2 h; bioavailability [1]: 88.8%; Half life T-half [2]: 1.57 h; Half life T-half [3]: 0.613 h
9 | 3.3 nM | 6 nM | – | – | – | – | – | – | – | – | – | – | – | CC(=O)N1CCC=C(c2cnc(NCc3c(F)ccc4c3CCO4)n3cnnc23)CC1 [SL-E13] | –
10 | – | 1 to 3 nM | – | – | – | – | – | – | – | – | – | – | – | COC(=O)N1CC=C(c2cnc(NCc3c(F)ccc4c3CCO4)n3cnnc23)CC1 [SL-ZYE-147] | –
11 | 4.7 nM | 1 to 3 nM | – | – | – | – | – | – | – | – | – | – | – | CCOC(=O)N1CC=C(c2cnc(NCc3c(F)ccc4c3CCO4)n3cnnc23)CC1 [SL-ZYE-148] | –
12 | 40.8 nM | 9 to 27 nM | – | – | – | – | – | – | – | – | – | – | – | CCC(=O)N1CC=C(c2cnc(NCc3c(F)ccc4c3CCO4)n3cnnc23)CC1 [SL-ZYE-161] | –
